{"source": "DBAASP", "assay_in_all_cases": "≥ marks a high value that may be exact or a test limit, other limits are often not marked, values filed in µg/mL are converted to µM", "key": {"Escherichia coli BL21": {"tested_on": "Escherichia coli BL21"}, "Pseudomonas syringae": {"tested_on": "Pseudomonas syringae"}, "[1]": {"tested_on": "Xanthomonas axonopodis pv. phaseoli ATCC 9563"}, "[2]": {"tested_on": "Streptococcus pyogenes GAS M1T1"}, "[3]": {"tested_on": "Pseudomonas aeruginosa ATCC 15442"}, "[4]": {"tested_on": "Staphylococcus aureus ATCC 25923"}, "[5]": {"tested_on": "Staphylococcus aureus ATCC 6538"}, "[6]": {"tested_on": "Staphylococcus epidermidis RP62A"}, "[7]": {"tested_on": "Staphylococcus aureus ATCC 29213"}, "Enterobacter cloacae": {"tested_on": "Enterobacter cloacae"}, "[8]": {"tested_on": "Escherichia coli ATCC 25922"}, "[9]": {"tested_on": "Acinetobacter baumannii ATCC 15308"}, "Citrobacter sp.": {"tested_on": "Citrobacter sp."}, "Staphylococcus aureus": {"tested_on": "Staphylococcus aureus"}, "Streptococcus pneumoniae": {"tested_on": "Streptococcus pneumoniae"}, "Klebsiella pneumoniae": {"tested_on": "Klebsiella pneumoniae"}, "[10]": {"tested_on": "Candida parapsilosis ATCC 22019"}, "[11]": {"tested_on": "Candida albicans ATCC 90028"}, "Candida krusei ATCC 6258": {"tested_on": "Candida krusei ATCC 6258"}, "Candida albicans SC5314": {"tested_on": "Candida albicans SC5314"}, "[12]": {"tested_on": "Staphylococcus aureus LAC"}, "[13]": {"tested_on": "Salmonella enterica subsp. enterica serovar Typhimurium ATCC 14028"}, "[14]": {"tested_on": "Escherichia coli K12 MG1655"}, "Escherichia coli UTI89": {"tested_on": "Escherichia coli UTI89"}, "[15]": {"tested_on": "Staphylococcus epidermidis"}, "[16]": {"tested_on": "Klebsiella pneumoniae ATCC 700603"}, "[17]": {"tested_on": "Pseudomonas aeruginosa ATCC 27853"}, "[18]": {"tested_on": "Staphylococcus aureus ATCC 33591"}, "[19]": {"tested_on": "Acinetobacter baumannii ATCC BAA-1605"}, "[20]": {"tested_on": "Enterococcus faecium ATCC 700221"}, "[21]": {"tested_on": "Enterococcus faecalis ATCC 19433"}}}
{"smiles": "CC[C@H](C)[C@H](NC(=O)[C@H](CCC(=O)O)NC(=O)[C@H](CC(N)=O)NC(=O)[C@H](CCCCN)NC(=O)[C@H](CC(C)C)NC(=O)[C@H](Cc1ccc(O)cc1)NC(=O)[C@H](CCC(N)=O)NC(=O)[C@H](CCCN=C(N)N)NC(=O)[C@@H](NC(=O)[C@@H](NC(=O)[C@H](CCCCN)NC(=O)[C@H](CCCCN)NC(=O)[C@H](Cc1c[nH]c2ccccc12)NC(=O)[C@H](C)N)[C@@H](C)O)[C@@H](C)CC)C(=O)N[C@@H](CCCCN)C(=O)N[C@@H](CCCCN)C(=O)N[C@@H](CCCCN)C(=O)N[C@@H](Cc1c[nH]c2ccccc12)C(=O)N[C@@H](CCCN=C(N)N)C(=O)N[C@@H](CCCCN)C(=O)N[C@@H](C)C(=O)N[C@H](C(=O)N[C@H](C(=O)N[C@@H](C)C(=O)N[C@@H](Cc1c[nH]c2ccccc12)C(=O)O)[C@@H](C)CC)C(C)C", "note": "[AWKKTIRQYLKNEIKKKWRKAVIAW]", "values": [{"measurement": "MIC", "setting": "Escherichia coli BL21", "value": 2, "unit": "µM"}, {"measurement": "MIC", "setting": "Pseudomonas syringae", "value": 8, "unit": "µM"}, {"measurement": "MIC", "setting": "[1]", "value": 1, "unit": "µM"}, {"measurement": "MIC", "setting": "[2]", "value": 8, "unit": "µM"}]}
{"smiles": "CC[C@H](C)[C@H](NC(=O)[C@@H](N)CCC(=O)O)C(=O)N[C@@H](CCC(=O)O)C(=O)N[C@@H](CCCCN)C(=O)N[C@@H](Cc1ccccc1)C(=O)N[C@@H](CC(=O)O)C(=O)N[C@@H](CCCCN)C(=O)N[C@@H](CO)C(=O)N[C@@H](CCCCN)C(=O)N[C@@H](CC(C)C)C(=O)N[C@@H](CCCCN)C(=O)O", "note": "[EIEKFDKSKLK]", "values": [{"measurement": "MIC", "setting": "[3]", "value": "≥ 9160", "unit": "µM"}, {"measurement": "MIC", "setting": "[4]", "value": 9160, "unit": "µM"}, {"measurement": "MIC", "setting": "[5]", "value": 9160, "unit": "µM"}, {"measurement": "MIC", "setting": "[6]", "value": "≥ 9160", "unit": "µM"}, {"measurement": "MIC", "setting": "[7]", "value": 4540, "unit": "µM"}]}
{"smiles": "CC(C)C[C@H](NC(=O)[C@H](CCCCN)NC(=O)[C@H](CO)NC(=O)[C@H](CCCCN)NC(=O)[C@H](CC(=O)O)NC(=O)[C@H](Cc1ccccc1)NC(=O)[C@H](CO)NC(=O)[C@H](C)NC(=O)[C@@H](NC(=O)[C@@H](N)CCC(=O)O)C(C)C)C(=O)N[C@@H](CCCCN)C(=O)O", "note": "[EVASFDKSKLK]", "values": [{"measurement": "MIC", "setting": "[3]", "value": "≥ 9990", "unit": "µM"}, {"measurement": "MIC", "setting": "[4]", "value": 9990, "unit": "µM"}, {"measurement": "MIC", "setting": "[5]", "value": 9990, "unit": "µM"}, {"measurement": "MIC", "setting": "[6]", "value": "≥ 4950", "unit": "µM"}, {"measurement": "MIC", "setting": "[7]", "value": 9990, "unit": "µM"}]}
{"smiles": "CC[C@H](C)[C@H](NC(=O)[C@H](CCSC)NC(=O)[C@H](C)NC(=O)[C@@H]1CCCN1C(=O)[C@@H](NC(=O)[C@H](CCCN=C(N)N)NC(=O)[C@H](CCCCN)NC(=O)[C@@H](NC(=O)[C@H](CC(C)C)NC(=O)CNC(=O)CNC(=O)[C@H](CC(C)C)NC(=O)[C@@H](N)Cc1ccccc1)[C@@H](C)CC)C(C)C)C(=O)N[C@H]1CSSC[C@@H](C(=O)O)NC(=O)[C@H](CCCCN)NC(=O)[C@H](CCCCN)NC(=O)[C@H](CCCN=C(N)N)NC(=O)[C@H](C(C)C)NC(=O)[C@H](C)NC1=O", "note": "[FLGGLIKRVPAMICAVRKKC]", "values": [{"measurement": "MIC", "setting": "Enterobacter cloacae", "value": "≥ 113", "unit": "µM"}, {"measurement": "MIC", "setting": "[3]", "value": "≥ 113", "unit": "µM"}, {"measurement": "MIC", "setting": "[8]", "value": "> 113", "unit": "µM"}, {"measurement": "MIC", "setting": "[4]", "value": "> 113", "unit": "µM"}, {"measurement": "MIC", "setting": "[9]", "value": "≥ 113", "unit": "µM"}, {"measurement": "MIC", "setting": "Citrobacter sp.", "value": "≥ 113", "unit": "µM"}, {"measurement": "MIC", "setting": "Staphylococcus aureus", "value": "> 113", "unit": "µM"}, {"measurement": "MIC", "setting": "Streptococcus pneumoniae", "value": "≥ 113", "unit": "µM"}, {"measurement": "MIC", "setting": "Klebsiella pneumoniae", "value": "> 113", "unit": "µM"}]}
{"smiles": "CC[C@H](C)[C@H](NC(=O)CN)C(=O)N[C@@H](Cc1c[nH]c2ccccc12)C(=O)N[C@@H](CCCCN)C(=O)N[C@@H](CCCCN)C(=O)N[C@@H](Cc1c[nH]c2ccccc12)C(=O)N[C@H](C(=O)N[C@@H](CCCCN)C(=O)N[C@@H](CCCCN)C(=O)N[C@@H](Cc1c[nH]c2ccccc12)C(=O)N[C@@H](CC(C)C)C(=O)N[C@@H](CCCCN)C(=O)N[C@@H](CCCCN)C(=O)N[C@@H](CC(C)C)C(=O)N[C@@H](CCCCN)C(=O)N[C@@H](CC(N)=O)C(=O)N[C@@H](CC(C)C)C(=O)N[C@@H](Cc1ccccc1)C(N)=O)[C@@H](C)CC", "note": "[GIWKKWIKKWLKKLKNLF]", "values": [{"measurement": "MIC", "setting": "[10]", "value": 13.6, "unit": "µM"}, {"measurement": "MIC", "setting": "[11]", "value": 27.1, "unit": "µM"}, {"measurement": "MIC", "setting": "Candida krusei ATCC 6258", "value": 6.79, "unit": "µM"}, {"measurement": "MIC", "setting": "Candida albicans SC5314", "value": 13.6, "unit": "µM"}]}
{"smiles": "CC[C@H](C)[C@H](N)C(=O)N[C@H](C(=O)N[C@H](C(=O)N[C@H](C(=O)N[C@@H](CCCN=C(N)N)C(=O)N[C@@H](CCCN=C(N)N)C(=O)N[C@@H](CCCN=C(N)N)C(=O)N[C@@H](CCCN=C(N)N)C(=O)O)[C@@H](C)CC)[C@@H](C)CC)[C@@H](C)CC", "note": "[IIIIRRRR]", "values": [{"measurement": "MIC", "setting": "[8]", "value": "> 117", "unit": "µM"}, {"measurement": "MIC", "setting": "[12]", "value": "≥ 117", "unit": "µM"}]}
{"smiles": "CC[C@H](C)[C@H](NC(=O)[C@H](CCCCN)NC(=O)[C@H](CCC(N)=O)NC(=O)[C@H](Cc1c[nH]c2ccccc12)NC(=O)[C@@H](NC(=O)[C@H](CCCCN)NC(=O)[C@@H](N)CCCCN)[C@@H](C)CC)C(=O)N[C@@H](CCCCN)C(=O)N[C@@H](CC(N)=O)C(=O)N[C@@H](Cc1ccccc1)C(=O)N[C@@H](Cc1ccccc1)C(=O)N[C@@H](CCCN=C(N)N)C(=O)N[C@@H](CCCCN)C(=O)N[C@@H](CC(C)C)C(=O)O", "note": "[KKIWQKIKNFFRKL]", "values": [{"measurement": "MIC", "setting": "[13]", "value": "> 50", "unit": "µM"}, {"measurement": "MIC", "setting": "[14]", "value": "≥ 50", "unit": "µM"}, {"measurement": "MIC", "setting": "Escherichia coli UTI89", "value": 25, "unit": "µM"}, {"measurement": "MIC", "setting": "[15]", "value": 12.5, "unit": "µM"}]}
{"smiles": "CC[C@H](C)[C@H](NC(=O)[C@H](CCCN=C(N)N)NC(=O)[C@H](CCCCN)NC(=O)[C@H](Cc1ccccc1)NC(=O)[C@H](CC(C)C)NC(=O)[C@H](CCCCN)NC(=O)[C@@H](N)CCCN=C(N)N)C(=O)N[C@@H](CC(C)C)C(=O)N[C@@H](CCCCN)C(=O)N[C@@H](Cc1ccc(O)cc1)C(=O)N[C@@H](CC(C)C)C(N)=O", "note": "[RKLFKRILKYL]", "values": [{"measurement": "MIC", "setting": "[8]", "value": 186, "unit": "µM"}, {"measurement": "MIC", "setting": "[16]", "value": 93, "unit": "µM"}, {"measurement": "MIC", "setting": "[17]", "value": 93, "unit": "µM"}, {"measurement": "MIC", "setting": "[18]", "value": "≥ 93", "unit": "µM"}, {"measurement": "MIC", "setting": "[19]", "value": "≥ 46.7", "unit": "µM"}, {"measurement": "MIC", "setting": "[20]", "value": "≥ 186", "unit": "µM"}]}
{"smiles": "CC(C)C[C@H](NC(=O)[C@@H](N)CCCN=C(N)N)C(=O)N1CCC[C@H]1C(=O)N[C@@H](Cc1c[nH]c2ccccc12)C(=O)N[C@@H](CCCN=C(N)N)C(=O)N[C@@H](Cc1c[nH]c2ccccc12)C(=O)N1CCC[C@H]1C(=O)N[C@@H](CCCN=C(N)N)C(=O)N[C@@H](CCCN=C(N)N)C(=O)N1CCC[C@H]1C(=O)N[C@@H](Cc1c[nH]c2ccccc12)C(=O)N[C@@H](CCCN=C(N)N)C(=O)N[C@@H](CCCN=C(N)N)C(N)=O", "note": "[RLPWRWPRRPWRR]", "values": [{"measurement": "MIC", "setting": "Enterobacter cloacae", "value": "≥ 130", "unit": "µM"}, {"measurement": "MIC", "setting": "[3]", "value": "≥ 65.2", "unit": "µM"}, {"measurement": "MIC", "setting": "[8]", "value": 130, "unit": "µM"}, {"measurement": "MIC", "setting": "[4]", "value": 65.2, "unit": "µM"}, {"measurement": "MIC", "setting": "[9]", "value": "≥ 130", "unit": "µM"}, {"measurement": "MIC", "setting": "Citrobacter sp.", "value": "≥ 130", "unit": "µM"}, {"measurement": "MIC", "setting": "Staphylococcus aureus", "value": 130, "unit": "µM"}, {"measurement": "MIC", "setting": "Streptococcus pneumoniae", "value": "≥ 130", "unit": "µM"}, {"measurement": "MIC", "setting": "Klebsiella pneumoniae", "value": "> 130", "unit": "µM"}]}
{"smiles": "CC[C@@H](C)[C@@H](NC(=O)[C@@H](CCCN=C(N)N)NC(=O)[C@@H](CCCN=C(N)N)NC(=O)[C@@H](Cc1c[nH]c2ccccc12)NC(=O)[C@@H](CCC(N)=O)NC(=O)[C@H](N)C(C)C)C(=O)N[C@H](CCCN=C(N)N)C(=O)N[C@@H](C(=O)N[C@H](Cc1c[nH]c2ccccc12)C(=O)N[C@@H](C(=O)N[C@@H](C(=O)N[C@H](CCCN=C(N)N)C(=O)O)[C@H](C)CC)C(C)C)C(C)C", "note": "[VQWRRIRVWVIR]", "values": [{"measurement": "MIC", "setting": "[21]", "value": "≥ 154", "unit": "µM"}]}
{"smiles": "NC(N)=NCCC[C@H](NC(=O)[C@H](CCCN=C(N)N)NC(=O)[C@H](CCCN=C(N)N)NC(=O)[C@H](CCCN=C(N)N)NC(=O)[C@H](Cc1ccc(O)cc1)NC(=O)[C@H](Cc1ccc(O)cc1)NC(=O)[C@H](Cc1ccc(O)cc1)NC(=O)[C@@H](N)Cc1ccc(O)cc1)C(=O)O", "note": "[YYYYRRRR]", "values": [{"measurement": "MIC", "setting": "[8]", "value": "> 98.8", "unit": "µM"}, {"measurement": "MIC", "setting": "[12]", "value": "≥ 98.8", "unit": "µM"}]}
